Results published in PubChem BioAssay AID651836 (Sanford-Burnham Center for Chemical Genomics, 2012).
Values joined by “and” are separate entries in the source; they are usually repeats but may differ in a detail not shown here. Equal values may be shown once. Active and inactive are the calls of the source. How the calls were made is not given here.

Tested on: Gli-SUFU luciferase reporter cells, luminescence
Assay: analogs blocking Gli reporter signaling – cell-based, luciferase luminescence, set 1, SAR follow-up (AID 651836)

Q: Which IC50 does the source give for `Cc1ccc(C(=O)Nc2cc(N3CCCCC3)ncn2)cc1` here?
A: > 11.7 µM (inactive)

Q: With `CC(C)CNc1cc(NC(=O)c2ccccc2)ncn1` as the compound, how does the IC50 read?
A: > 11.7 µM (inactive)

Q: For `Cc1nc(NC(=O)c2ccccc2)cc(N(C)C)n1`, which IC50 is on record?
A: > 11.7 µM (inactive)

Q: With `O=C(Nc1cc(N2CCCC2)ncn1)c1ccccc1F` as the compound, how does the IC50 read?
A: > 11.7 µM (inactive)

Q: Which IC50 does the source give for `O=C(Nc1cc(N2CCCCC2)ncn1)c1ccc(Cl)cc1` here?
A: > 11.7 µM (inactive)

Q: For `CCN(CC)c1cc(NC(=O)c2ccccc2F)ncn1`, which IC50 is on record?
A: 0.556 µM

Q: For `O=C(Nc1cc(N2CCNCC2)ncn1)c1ccccc1`, which IC50 is on record?
A: > 11.7 µM (inactive)

Q: With `CCN(CC)c1cc(NC(=O)c2ccc(Br)o2)ncn1` as the compound, how does the IC50 read?
A: > 11.7 µM (inactive)

Q: For `CN(C)c1cc(NC(=O)c2cccc(F)c2)ncn1`, which IC50 is on record?
A: > 11.7 µM (inactive)

Q: With `N#Cc1ccc(C(=O)Nc2cc(N3CCCCC3)ncn2)cc1` as the compound, how does the IC50 read?
A: > 11.7 µM (inactive)

Q: How did the IC50 turn out when `CCN(CC)c1cc(NC(=O)c2cc(OC)cc(OC)c2)ncn1` was run?
A: > 11.7 µM (inactive)

Q: `CC(C)CNc1cc(NC(=O)c2cccc(F)c2)ncn1` was tested. Which IC50 did it give?
A: > 11.7 µM (inactive)

Q: Which IC50 does the source give for `CC1CCCCN1c1cc(NC(=O)c2ccccc2)ncn1` (stereo unspecified) here?
A: > 11.7 µM (inactive)

Q: With `CC(C)(C)Nc1cc(NC(=O)c2ccccc2)ncn1` as the compound, how does the IC50 read?
A: > 11.7 µM (inactive)

Q: With `CC(C)(C)OC(=O)N1CCN(c2cc(NC(=O)c3ccccc3)ncn2)CC1` as the compound, how does the IC50 read?
A: > 11.7 µM (inactive)

Q: With `COc1cc(OC)cc(C(=O)Nc2cc(N3CCCCC3)ncn2)c1` as the compound, how does the IC50 read?
A: > 11.7 µM (inactive)

Q: How did the IC50 turn out when `CN(C)c1cc(NC(=O)c2ccccc2F)ncn1` was run?
A: > 11.7 µM (inactive)

Q: How did the IC50 turn out when `CN(C)c1cc(NC(=O)c2cccc(C#N)c2)ncn1` was run?
A: > 11.7 µM (inactive)

Q: How did the IC50 turn out when `O=C(Nc1cc(N2CCCCC2)ncn1)c1ccc2ccccc2c1` was run?
A: > 11.7 µM (inactive)

Q: With `CCOc1ccc(S(=O)(=O)NCc2ccncc2)cc1NC(=O)c1ccccc1` as the compound, how does the IC50 read?
A: 0.636 µM

Q: For `CN1CCN(c2cc(NC(=O)c3ccccc3)ncn2)CC1`, which IC50 is on record?
A: > 11.7 µM (inactive)

Q: For `O=C(Nc1cc(N2CCCCC2)ncn1)c1ccccc1C(F)(F)F`, which IC50 is on record?
A: > 11.7 µM (inactive)

Q: How did the IC50 turn out when `CCN(CC)c1cc(NC(=O)c2cccc(F)c2)ncn1` was run?
A: > 11.7 µM (inactive)

Q: With `CCC(C)Nc1cc(NC(=O)c2ccccc2)ncn1` (stereo unspecified) as the compound, how does the IC50 read?
A: > 11.7 µM (inactive)

Q: How did the IC50 turn out when `N#Cc1cccc(C(=O)Nc2cc(N3CCCCC3)ncn2)c1` was run?
A: > 11.7 µM (inactive)

Q: Which IC50 does the source give for `Cc1nc(NC(=O)c2ccccc2)cc(N2CCCCC2)n1` here?
A: > 11.7 µM (inactive)

Q: Which IC50 does the source give for `O=C(Nc1cc(N2CCSCC2)ncn1)c1ccccc1` here?
A: > 11.7 µM (inactive)

Q: How did the IC50 turn out when `O=C(Nc1cc(N2CCCCC2)ncn1)c1ccccc1F` was run?
A: 0.176 µM

Q: Which IC50 does the source give for `O=C(Nc1cc(N2CCCCCC2)ncn1)c1ccccc1` here?
A: 0.0741 µM

Q: For `O=C(Nc1cc(N2CCCCC2)ncn1)c1cc2ccccc2s1`, which IC50 is on record?
A: > 11.7 µM (inactive)

Q: With `O=C(Nc1cc(N2CCCCC2)ncn1)c1cccc2ccccc12` as the compound, how does the IC50 read?
A: > 11.7 µM (inactive)

Q: `CCCCNc1cc(NC(=O)c2ccccc2)ncn1` was tested. Which IC50 did it give?
A: > 11.7 µM (inactive)

Q: Which IC50 does the source give for `COc1cc(OC)cc(C(=O)Nc2cc(N(C)C)ncn2)c1` here?
A: > 11.7 µM (inactive)

Q: How did the IC50 turn out when `O=C(Nc1cc(N2CCCC2)ncn1)c1cccc(F)c1` was run?
A: > 11.7 µM (inactive)

Q: For `CC1CCN(c2cc(NC(=O)c3ccccc3)ncn2)CC1`, which IC50 is on record?
A: 0.037 µM

Q: `Cc1nc(NC(=O)c2ccccc2)cc(N2CCCC2)n1` was tested. Which IC50 did it give?
A: > 11.7 µM (inactive)

Q: Which IC50 does the source give for `O=C(Nc1cc(N2CCCCC2)ncn1)c1cccc(F)c1` here?
A: > 11.7 µM (inactive)

Q: How did the IC50 turn out when `CN(C)c1cc(NC(=O)c2ccccc2)ncn1` was run?
A: > 11.7 µM (inactive)

Q: With `O=C(Nc1cc(N2CCCCC2)ncn1)c1ccsc1` as the compound, how does the IC50 read?
A: > 11.7 µM (inactive)

Q: Which IC50 does the source give for `COc1cc(OC)cc(C(=O)Nc2cc(Nc3cccc(Cl)c3)ncn2)c1` here?
A: > 11.7 µM (inactive)

Q: How did the IC50 turn out when `O=C(Nc1cc(N2CCCCC2)ncn1)c1ccco1` was run?
A: > 11.7 µM (inactive)

Q: Which IC50 does the source give for `CC(C)Nc1cc(NC(=O)c2ccccc2)ncn1` here?
A: > 11.7 µM (inactive)

Q: For `O=C(Nc1cc(N2CCOCC2)ncn1)c1ccccc1`, which IC50 is on record?
A: > 11.7 µM (inactive)

Q: For `CCCCN(C)c1cc(NC(=O)c2ccccc2)ncn1`, which IC50 is on record?
A: > 11.7 µM (inactive)

Q: With `O=C(Nc1cc(N2CCCCC2)ncn1)c1cccs1` as the compound, how does the IC50 read?
A: > 11.7 µM (inactive)

Q: How did the IC50 turn out when `COc1cccc(C(=O)Nc2cc(N3CCCCC3)ncn2)c1` was run?
A: > 11.7 µM (inactive)

Q: For `CCN(CC)c1cc(NC(=O)c2ccccc2)ncn1`, which IC50 is on record?
A: > 11.7 µM (inactive)

Q: How did the IC50 turn out when `COc1cc(OC)cc(C(=O)Nc2cc(N3CCCC3)ncn2)c1` was run?
A: > 11.7 µM (inactive)

Q: With `CCN(CC)c1cc(NC(=O)c2cccc(C#N)c2)ncn1` as the compound, how does the IC50 read?
A: > 11.7 µM (inactive)

Q: `O=C(Nc1cc(N2CCCCC2)ncn1)c1ccc(Br)o1` was tested. Which IC50 did it give?
A: > 11.7 µM (inactive)

Q: `O=C(Nc1cc(NCC2CCCO2)ncn1)c1ccccc1` (stereo unspecified) was tested. Which IC50 did it give?
A: > 11.7 µM (inactive)

Q: For `CCOc1ccc(-c2nc(CSCC(=O)NC3CC3)c(C)o2)cc1`, which IC50 is on record?
A: 0.0378 µM

Q: How did the IC50 turn out when `CCN(CC)c1cc(NC(=O)c2ccccc2)nc(C)n1` was run?
A: > 11.7 µM (inactive)

Q: How did the IC50 turn out when `O=C(Nc1cc(N2CCCCC2)ncn1)c1ccccc1` was run?
A: 0.0566 µM and 0.0242 µM

Q: Which IC50 does the source give for `O=C(Nc1cc(N2CCCC2)ncn1)c1ccccc1` here?
A: > 11.7 µM (inactive)

Q: `O=C(Nc1cc(N2CCCCC2)ncn1)c1ccc(C(F)(F)F)cc1` was tested. Which IC50 did it give?
A: > 11.7 µM (inactive)
